Measurements taken from patent US20230000888A1, “NAD-PRECURSORS AND DIETARY RESTRICTION FOR TREATING AGE RELATED MEDICAL CONDITIONS” (Leibniz-Institut für Alternsforschung - …, priority 2019, published 2023).

Assays:
[1] = tested on: HSCs (CD150+CD34−Flt3−LSK); test: Culture of freshly isolated HSCs with metabolic inhibitors, total cell numbers by FACS after 5 days; format: cell-based, mice; settings: for cell numbers 5 days after initiation of the treatment, HSCs from old mice compared to HSCs from young mice: 2-DG 3 mM, Oligomycin 1.8 nM, 1,500 HSCs per well, FIG. 6C; for cell numbers 5 days after induction of the inhibitor treatment, HSCs from young mice / sensitivity to respond with a reduction in cell growth, HSCs from old mice: inhibitor of mitochondrial nutrient uptake 9 μM, FIG. 6D; for sensitivity to respond with a reduction in cell growth, HSCs from old mice: compared to young
Protocol: (C-E) One-thousand-five-hundred, freshly isolated HSCs (CD150^+CD34^−Flt3^−LSK) from young or old mice were cultured per well (96-well plate). (C) HSCs were exposed to 2-DG (3 mM), Oligomycin (=Oligo, 1.8 nM), or DMSO as control (=Con). Total cell numbers per well were determined by FACS after 5 days. Young mice (4 months, n=4) and old mice (24 months, n=6). Data are normally distributed (Shapiro-Wilk test). P-values were calculated by t-test with Welch's correction. Error bars depict SD. (D) HSCs were cultured with inhibitors that block the mitochondrial uptake of […] (BPTES, 9 μM), fatty acids (Etomoxir, 9 μM), or pyruvate (UK5099, 9 μM). Total cell numbers were counted by FACS after 5 days. Young mice (3-4 months, n=5) and old mice (26 months, n=4). Data are normally distributed (Shapiro-Wilk test). P-values were calculated by unpaired t-test with Welch's correction. (E) HSCs were exposed to a combination of 3 inhibitors (3 inhibitors=3I, same as in D) at a concentration of 6 μM (each) or to DMSO (Con). Young mice (2-3 months, n=5) and old mice (30-31 months, n=5). Data are normally distributed (Shapiro-Wilk test). P-values were calculated using 2-way ANOVA with Tukey's multiple comparisons test. Error bars depict SD.
To test the functional relevance of these aging-associated changes in the proteome of HSCs, freshly isolated HSCs were exposed to treatment with oligomycin (an inhibitor of mitochondrial oxidative phosphorylation) or to treatment with 2-Deoxy-D-glucose (2-DG) in culture. […] Similar results were obtained after inhibition of nutrient influx into mitochondria. In this experiment, freshly isolated HSCs were incubated with compounds that inhibit the influx of nutrients into mitochondria (BPTES for glutamine, Etomoxir for fatty acids, or UK5099 for pyruvate).
For testing the response of HSPCs to the blocking of glycolysis or mitochondrial ATP synthesis, 2-DG (Sigma, D8375) or oligomycin A (Sigma, 75351) were used. For the inhibition of nutrient uptake into mitochondria, three inhibitors (3I) were used. BPTES (Sigma, SML0601) blocks […] uptake, Etomoxir (Sigma E1905) blocks Fatty acids uptake, and UK5099 (Sigma PZ0160) blocks pyruvate uptake. The final concentration of each inhibitor in the culture medium is 6 μM. Same amount of DMSO was used in the medium as control. For determination of cell number after NR treatment 500 HSCs from young (2-3 months) and old (22-24 months) were pre-incubated either with 1 mM NR (provided by Prof. Johan Auwerx Lab) or DMSO as control for 2 days followed by 2 days treatment with the inhibitors (BPTES, Etomoxir and UK5099, 6 μM each) or same amount of DMSO as control. The cells were then analyzed by BD LSR fortessa.

[2] = tested on: HSCs (CD150+CD34−Flt3−LSK); test: Culture of HSCs from FCCP- or vehicle-treated mice with 3I-treatment, total cell numbers; format: cell-based; settings: HSCs from high-dose FCCP-treated young mice; FIG. 6G
Protocol: (F,G) Young, 3-4 month old mice were treated within one week with two intraperitoneal injections of FCCP on day-1 and day-4 (high-dose: 4.8 mg/Kg or low-dose: 1.2 mg/Kg) or with vehicle control (10% DMSO) (n=4 mice per group). One week after the start of the treatment (day-7), total bone marrow cells were analyzed and used for culture experiments. […] (G) 2,500 freshly isolated HSCs from vehicle-treated of high-dose FCCP-treated animals were cultured and exposed to 3I-treatment (same concentration as in FIG. 6E) or to vehicle-treatment (Con). The histogram depicts the total cell numbers at 4 days after culture initiation. (F,G) Data are normally distributed (Shapiro-Wilk test) and p-values were calculated using one-way ANOVA (F) and two-way ANOVA (G) with Tukey's multiple comparisons test. Error bars depict SD.
(§2) To experimentally test whether mitochondrial dysfunction would cause an abrogation of adaptive responses of HSCs to reduction in nutrient availability, young mice were exposed the mitochondrial uncoupler FCCP or vehicle (two injections: day-1 and day-4). One week after the first injection, the mice were analyzed and freshly isolated HSCs of FCCP-treated vs. DMSO-treated mice were exposed in culture to the 3 above described inhibitors of mitochondrial nutrient uptake—a combination of BPTES, Etomoxir, and UK5099, referred to from here on as “3I”.

[3] = tested on: HSCs (CD150+CD34−Flt3−LSK); settings: young mice, two i.p. injections (day-1, day-4), 1.2 or 4.8 mg/Kg, 1 week; FIG. 6F
Protocol: (F,G) Young, 3-4 month old mice were treated within one week with two intraperitoneal injections of FCCP on day-1 and day-4 (high-dose: 4.8 mg/Kg or low-dose: 1.2 mg/Kg) or with vehicle control (10% DMSO) (n=4 mice per group). One week after the start of the treatment (day-7), total bone marrow cells were analyzed and used for culture experiments. […] (F,G) Data are normally distributed (Shapiro-Wilk test) and p-values were calculated using one-way ANOVA (F) and two-way ANOVA (G) with Tukey's multiple comparisons test. Error bars depict SD.
as §2
Young C57BL/6 wild type mice (3 months) male mice were weighed before the injection. […]

CMPs = settings: FIG. 8H
Protocol: (H) Young, 3-4-month old mice were treated one week with two intraperitoneal injections of FCCP/week (high-dose: 4.8 mg/Kg or low-dose: 1.2 mg/Kg) or with vehicle control (10% DMSO) (n=4 mice per group). One week after the start of the treatment, CMPs were freshly isolated and exposed for 12h in culture to a combination of 3 inhibitors of mitochondrial nutrient uptake (31: 6 μM of each BPTES, Etomoxir, and UK5099) or DMSO control (Con). Statistical analysis: The data were normally distributed (Shapiro-Wilk) and p-values were calculated by 2-way ANOVA with Tukey's multiple comparisons test. Error bars depict SD.
To experimentally test this conclusion, CMPs from FCCP-treated vs. control treated young mice (see above) were exposed for 12 hours to 3I-treatment in culture and adaptive response in OCR were measured by Seahorse.
Young C57BL/6 wild type mice (3 months) male mice were weighed before the injection. The mice were then injected intraperitoneally with low dose (1.2 mg/Kg), high dose (4.82 mg/Kg) of FCCP, or 10% DMSO as control (all drugs were dissolved in 10% DMSO. The drug concentration was adjusted so that the final volume of injection of each injection is 150 pL/mouse. The mice were injected at day 1 and day 4 after weighing. Then they were analyzed at day 6. […]

[4] = tested on: Ldha, Pdha, Nrf1 and Hif1a mRNA in HSCs; test: qPCR of Ldha, Pdha, Nrf1, Hif1a in HSCs after oligomycin-treatment; format: cell-based, mice; settings: oligomycin 0.6 μM, 3 hours
Protocol: FIG. 8. (A,B) Freshly isolated HSCs (CD150^+CD34^−Flt3^−LSK) from young mice (2-3 months, n=4) and old mice (27-30 months, n=6) were exposed to oligomycin-treatment (0.6 μM) or vehicle control (0.1% DMSO) for 3 hours in culture (7000 HSCs per well of a 96-well plate). Gene expressions (relative to β-actin) of (A) Ldha, (B) Pdha were analyzed by qPCR. […] P-values were calculated on transformed data by unpaired t-test with Welch's correction. Error bars depict SD.
(E,F) The same HSC cultures that were described in FIG. 8A were used to determine the mRNA expression levels of (E) Nrf1 and (F) Hif1a relative to β-actin by qPCR. N=4 for young groups, n=6 for old groups. One outlier (Grubbs test) was removed for the control groups). […] Error bars depict SD.
(§1) To further test this hypothesis, we analyzed the adaptability of mitochondrial metabolic pathways in freshly isolated HSPCs from young and old mice. First, we exposed freshly isolated HSCs to Oligomycin or to control treatment and we analyzed the RNA expression of Lactate dehydrogenase A (Ldha) and Pyruvate dehydrogenase A (Pdha) 3 hours after isolation and drug treatment. […] Second, we measured the activity of LDH and PDH in freshly isolated HSCs that were exposed for 20 hours to Oligomycin. […] Again HSCs from old mice were irresponsive (FIG. 8C,D). […] Third, we analyzed OCR in freshly isolated CMPs that were treated for 12 hours with inhibitors of mitochondrial nutrient flow (3I) compared to control treatment. As outlined above, CMPs were used for these respirometry experiments, which need higher cell numbers and thus cannot be conducted on HSCs. […] This increase in OCR in young compared to old CMPs was different from freshly isolated MPs (FIG. 3D) likely due to culture induced activation of OCR in young CMPs, which was impaired in old CMPs by pre-existing, chronic mitochondrial dysfunction.

[5] = tested on: LDH and PDH activity in HSCs; test: Activity of LDH and PDH in cultured HSCs after oligomycin-treatment; format: cell-based, mice; settings: oligomycin 2.4 nM, 20 hours
Protocol: (C,D) Freshly isolated HSCs (CD150^+CD34^−Flt3^−LSK) from young mice (3-4 months, n=7) and old mice (24-25 months, n=7) were cultured overnight (7,000 HSCs per well of a 96-well plate). Eighteen hours later, HSCs were exposed to oligomycin-treatment (2.4 nM) or vehicle control (0.04% DMSO). After 20h treatment, 1,000 cells from the cultures were isolated by FACS to analyze the activity of (C) LDH and (D) PDH. The histograms depict the data scaled to the average of young, control-treated HSCs set to 1. Data are normally distributed (Shapiro-Wilk test). P-values were calculated by two-way ANOVA with Tukey's multiple comparison tests. Error bars depict SD.
as §1

For `O=CC[C@@H](O)[C@H](O)[C@H](O)CO` [2-DG, 2-Deoxy-D-glucose], the “cell numbers 5 days after initiation of the treatment, HSCs from old mice compared to HSCs from young mice” value [1] was “stronger reduction in cell numbers”.

In the case of `O=C(Cc1ccccc1)Nc1nnc(CCSCCc2nnc(NC(=O)Cc3ccccc3)s2)s1` [BPTES], the “cell numbers 5 days after induction of the inhibitor treatment, HSCs from young mice” value [1] is reported as “strong reduction in cell numbers” and the “sensitivity to respond with a reduction in cell growth, HSCs from old mice” value (“sensitivity to respond with a reduction” for short) [1] is reported as “significantly reduced”.

`CCOC(=O)[C@@]1(CCCCCCOc2ccc(Cl)cc2)CO1` [Etomoxir] was tested, and the “cell numbers 5 days after induction of the inhibitor treatment, HSCs from young mice” value [1] was “strong reduction in cell numbers” and the “sensitivity to respond with a reduction” value [1] was “significantly reduced”.

In the case of `N#CC(C#N)=NNc1ccc(OC(F)(F)F)cc1` [FCCP], the “response of HSCs to 3I-treatment by reduction in cell expansion” value [2] is reported as “complete abrogation in responding to 3I-treatment”, the “number of phenotypic HSCs in bone marrow” value [3] is reported as “dose dependent increase in the number of phenotypic HSCs in bone marrow” and the “responsiveness of CMPs to reduce OCRs in response to 3I-treatment in culture” value (CMPs; CMPs from FCCP-treated young mice, 3I 6 μM each, 12 h) is reported as “dose dependent loss in the responsiveness”. For the same compound, the “OCR of freshly isolated CMPs” value (CMPs; in vivo pre-treatment of young mice with FCCP 1.2 or 4.8 mg/Kg) was “dose dependent reduction in the OCR”.

`N#C/C(=C\c1cn(-c2ccccc2)c2ccccc12)C(=O)O` [UK5099] was tested, and the “cell numbers 5 days after induction of the inhibitor treatment, HSCs from young mice” value [1] was “strong reduction in cell numbers” and the “sensitivity to respond with a reduction” value [1] was “significantly reduced”.

With `CC[C@H]1/C=C/C=C/C[C@@H](C)[C@H](O)[C@@](C)(O)C(=O)[C@@H](C)[C@H](O)[C@@H](C)C(=O)[C@@H](C)[C@H](O)[C@@H](C)/C=C/C(=O)O[C@@H]2[C@H](C)[C@H](CC1)O[C@]1(CC[C@H](C)[C@H](C[C@@H](C)O)O1)[C@H]2C` [oligomycin, oligomycin A] the “cell numbers 5 days after initiation of the treatment, HSCs from old mice compared to HSCs from young mice” value [1] was “less responsive to reduce cell growth”, the “Ldha and Pdha RNA expression” value ([4]; HSCs from old mice, FIG. 8A,B) was “irresponsive” and the “Ldha RNA expression” value ([4]; HSCs from young mice, FIG. 8A) was “significant suppression of Ldha expression”. The “Pdha RNA expression” value ([4]; HSCs from young mice, FIG. 8B) was “concomitant increase in Pdha expression”, the “LDH and PDH activity” value ([5]; HSCs from old mice, FIG. 8C,D) was “irresponsive” and the LDH activity ([5]; HSCs from young mice, FIG. 8C) was “reduction in LDH activity”. For the same compound, the PDH activity ([5]; HSCs from young mice, FIG. 8D) was “PDH activity was maintained”.
